# Several values for one entry are separate records, joined by “and”; a condition that tells them apart may be missing. Identical values can stand only once.
# Tests used:
# S. aureus (MDR00231) [1] = assay: Agar well-diffusion antimicrobial sensitivity assay; type: cell-based, Staphylococcus aureus; conditions: Staphylococcus aureus, read-out: Inhibition Zone (IZ)
# [2] = tested on: S. epidermidis (MDR00223); assay: as above; type: cell-based, Staphylococcus epidermidis; conditions: Staphylococcus epidermidis, read-out: Inhibition Zone (IZ)
# E. coli (MDR00501) [3] = assay: as above; type: cell-based; conditions: Escherichia coli, read-out: Inhibition Zone (IZ)
# [4] = tested on: C. albicans100 (MDR00100); assay: as above; type: cell-based, Candida albicans; conditions: Candida albicans, read-out: Inhibition Zone (IZ)
# [5] = tested on: C. albicans200 (MDR00200); assay: as above; type: cell-based, Candida albicans; conditions: Candida albicans, read-out: Inhibition Zone (IZ)
# S. aureus (MDR00231) [6] = assay: MIC and MBC by broth microdilution; type: cell-based, Staphylococcus aureus
# [7] = tested on: S. epidermidis (MDR00223); assay: MIC and MBC by broth microdilution; type: cell-based, Staphylococcus epidermidis
# B. subtilis (MDR00423) = assay: MIC and MBC by broth microdilution; type: cell-based
# E. coli (MDR00501) [8] = assay: MIC and MBC by broth microdilution; type: cell-based
# A. baumannii (MDR00521) = assay: MIC and MBC by broth microdilution; type: cell-based
# K. pneumoniae (MDR00244) = assay: MIC and MBC by broth microdilution; type: cell-based; conditions: ratio in parentheses
# [9] = tested on: C. albicans100 (MDR00100); assay: MIC and MFC by broth microdilution; type: cell-based, Candida albicans
# [10] = tested on: C. albicans200 (MDR00200); assay: MIC and MFC by broth microdilution; type: cell-based, Candida albicans
# S. aureus biofilm = assay: Staphylococcus biofilm mass reduction; type: cell-based; conditions: at their MIC
# S. epidermidis biofilm = assay: Staphylococcus biofilm mass reduction; type: cell-based; conditions: at their MIC
# S. aureus [11] = assay: Single-step resistance selection; type: cell-based, Staphylococcus aureus; conditions: 4 × MIC, 48 h
# S. epidermidis [12] = assay: Single-step resistance selection; type: cell-based, Staphylococcus epidermidis; conditions: 4 × MIC, 48 h
# B. subtilis [13] = assay: Single-step resistance selection; type: cell-based; conditions: 4 × MIC, 48 h
# E. coli [14] = assay: Single-step resistance selection; type: cell-based; conditions: 4 × MIC, 48 h
# A. baumannii [15] = assay: Single-step resistance selection; type: cell-based; conditions: 4 × MIC, 48 h
# K. pneumoniae [16] = assay: Single-step resistance selection; type: cell-based; conditions: 4 × MIC, 48 h
# C. albicans100 [17] = assay: Single-step resistance selection; type: cell-based, Candida albicans; conditions: 4 × MIC, 48 h
# C. albicans200 [18] = assay: Single-step resistance selection; type: cell-based, Candida albicans; conditions: 4 × MIC, 48 h
# S. aureus [19] = assay: Checkerboard combination assay with Ciprofloxacin; type: cell-based, Staphylococcus aureus
# S. epidermidis [20] = assay: Checkerboard combination assay with Ciprofloxacin; type: cell-based, Staphylococcus epidermidis
# B. subtilis [21] = assay: Checkerboard combination assay with Ciprofloxacin; type: cell-based
# E. coli [22] = assay: Checkerboard combination assay with Ciprofloxacin; type: cell-based
# A. baumannii [23] = assay: Checkerboard combination assay with Ciprofloxacin; type: cell-based
# K. pneumoniae [24] = assay: Checkerboard combination assay with Ciprofloxacin; type: cell-based
# C. albicans100 [25] = assay: Checkerboard combination assay with Ketoconazole; type: cell-based, Candida albicans
# C. albicans200 [26] = assay: Checkerboard combination assay with Ketoconazole; type: cell-based, Candida albicans
# RBCs = assay: Hemolytic assay; type: cell-based; conditions: human RBCs; compounds 1.0 mg/mL; Triton X-100 0.1% v/v; 37 °C, 35 min
# E. coli DNA gyrase = E. coli DNA gyrase (Escherichia coli, UniProt P0AES4+P0AES6); assay: DNA gyrase inhibition; type: biochemical
# E. coli DNA gyrase, sequence (P0AES4 whole entry, one chain of several): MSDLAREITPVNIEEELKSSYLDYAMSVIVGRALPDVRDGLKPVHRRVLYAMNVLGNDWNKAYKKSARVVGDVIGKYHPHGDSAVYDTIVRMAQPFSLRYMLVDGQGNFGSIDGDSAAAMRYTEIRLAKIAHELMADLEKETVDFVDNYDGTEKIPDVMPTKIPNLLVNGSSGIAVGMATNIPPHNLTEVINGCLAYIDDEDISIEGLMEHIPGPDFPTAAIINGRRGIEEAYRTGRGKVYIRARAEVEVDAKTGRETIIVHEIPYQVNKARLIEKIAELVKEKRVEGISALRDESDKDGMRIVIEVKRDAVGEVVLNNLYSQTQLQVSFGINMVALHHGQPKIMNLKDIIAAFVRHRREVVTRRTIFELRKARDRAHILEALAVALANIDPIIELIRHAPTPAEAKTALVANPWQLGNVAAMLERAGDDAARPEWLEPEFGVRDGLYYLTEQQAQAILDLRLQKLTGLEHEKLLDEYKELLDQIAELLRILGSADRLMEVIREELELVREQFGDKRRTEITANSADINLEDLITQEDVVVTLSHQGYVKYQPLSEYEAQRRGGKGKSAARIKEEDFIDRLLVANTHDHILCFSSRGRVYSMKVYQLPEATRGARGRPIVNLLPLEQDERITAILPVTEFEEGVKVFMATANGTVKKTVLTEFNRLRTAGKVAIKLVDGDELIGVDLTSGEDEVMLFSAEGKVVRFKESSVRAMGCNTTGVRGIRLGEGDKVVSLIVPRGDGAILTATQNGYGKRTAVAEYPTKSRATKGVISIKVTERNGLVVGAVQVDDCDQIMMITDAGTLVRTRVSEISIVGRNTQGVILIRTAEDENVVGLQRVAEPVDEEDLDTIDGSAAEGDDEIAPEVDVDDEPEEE
# [27] = molecular target: T1, dihydrofolate reductase (DHFR) (Homo sapiens, UniProt P00374); assay: DHFR inhibition; type: biochemical
# T1 sequence (P00374 1-187): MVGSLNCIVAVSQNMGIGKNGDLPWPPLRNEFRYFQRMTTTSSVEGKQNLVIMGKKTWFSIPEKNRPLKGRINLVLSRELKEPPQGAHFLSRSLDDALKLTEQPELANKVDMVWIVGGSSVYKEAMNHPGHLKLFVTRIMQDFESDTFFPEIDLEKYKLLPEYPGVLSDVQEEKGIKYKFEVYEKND
# [28] = In vitro cytotoxicity on normal cell line; type: cell-based, mouse; conditions: mouse, BNL normal liver cells
# [29] = tested on: BNL: mouse normal liver cells; assay: In vitro cytotoxicity on normal cell line; type: cell-based
# [30] = In vitro cytotoxicity on normal cell line; type: cell-based, green monkey; conditions: green monkey, Vero kidney cells
# [31] = tested on: Vero: green monkey kidney; assay: In vitro cytotoxicity on normal cell line; type: cell-based
# [32] = In vitro cytotoxicity on normal cell line; type: cell-based, rat; conditions: rat, H9C2 heart/myocardium cells
# [33] = tested on: H9C2: rat heart/myocardium; assay: In vitro cytotoxicity on normal cell line; type: cell-based
# [34] = tested on: clinical pathogenic isolates; assay: Single-step resistance selection, whole panel; type: cell-based; conditions: 4 × MIC
structure (smiles),measurement,setting,value
"N#CC(=Cc1ccccc1O)C1=NC(=O)C(=Cc2cn(-c3ccccc3)nc2-c2ccccc2)S1 [Compound 5a, 3-(2-Hydroxyphenyl)-2-(5-((1,3-diphenyl-1H-pyrazol-4-yl)methylene)-4-oxo-4,5-dihydro-thiazol-2-yl)acrylonitrile]",zone of inhibition at 100000 µg/mL,S. aureus (MDR00231) [1],29 ± 0.22 mm
same,zone of inhibition at 100000 µg/mL,[2],27 ± 0.24 mm
same,zone of inhibition at 100000 µg/mL,E. coli (MDR00501) [3],28 ± 0.14 mm
same,zone of inhibition at 100000 µg/mL,[4],28 ± 0.4 mm
same,zone of inhibition at 100000 µg/mL,[5],30 ± 0.6 mm
same,MBC/MIC,"S. aureus (MDR00231) [6]; S. aureus, ratio in parentheses",1
same,MIC,"S. aureus (MDR00231) [6]; Staphylococcus aureus, read-out: MIC (mean ± SEM), S. aureus, broth microdilution",0.48 ± 0.1 µg/mL
same,MBC/MIC,"[7]; S. epidermidis, ratio in parentheses",0.5
same,MIC,"[7]; Staphylococcus epidermidis, read-out: MIC (mean ± SEM), S. epidermidis, broth microdilution",0.49 ± 0.4 µg/mL
same,MBC/MIC,"B. subtilis (MDR00423); B. subtilis, ratio in parentheses",1
same,MIC,"B. subtilis (MDR00423); Bacillus subtilis, read-out: MIC (mean ± SEM), B. subtilis, broth microdilution",0.49 ± 0.2 µg/mL
same,MIC (mean ± SEM),"E. coli (MDR00501) [8]; E. coli, broth microdilution",0.46 ± 0.3 µg/mL
same,MBC/MIC,"E. coli (MDR00501) [8]; E. coli, ratio in parentheses",1
same,MIC,"E. coli (MDR00501) [8]; Escherichia coli, read-out: MIC (mean ± SEM), E. coli, broth microdilution",0.46 µg/mL
same,MIC (mean ± SEM),A. baumannii (MDR00521); broth microdilution,0.48 ± 0.5 µg/mL
same,MBC/MIC,A. baumannii (MDR00521); ratio in parentheses,0.5
same,MBC/MIC,K. pneumoniae (MDR00244),1
same,MIC (mean ± SEM),"[9]; C. albicans100, broth microdilution",0.43 ± 0.5 µg/mL
same,MFC/MIC,"[9]; C. albicans100, ratio in parentheses",0.5
same,MIC,"[9]; Candida albicans, read-out: MIC (mean ± SEM), C. albicans100, broth microdilution",0.43 µg/mL
same,MIC (mean ± SEM),"[10]; C. albicans200, broth microdilution",0.24 ± 0.4 µg/mL
same,MFC/MIC,"[10]; C. albicans200, ratio in parentheses",1
same,MIC,"[10]; Candida albicans, read-out: MIC (mean ± SEM), C. albicans200, broth microdilution",0.24 µg/mL
same,reduction of biofilm formation,S. aureus biofilm,89.1%
same,reduction of biofilm formation,S. epidermidis biofilm,79.5%
same,Single-step resistance frequency (mutation frequency),S. aureus [11],3.22 × 10^–7
same,Single-step resistance frequency (mutation frequency),S. epidermidis [12],2.71 × 10^–8
same,Single-step resistance frequency (mutation frequency),B. subtilis [13],2.93 × 10^–7
same,Single-step resistance frequency (mutation frequency),E. coli [14],2.21 × 10^–7
same,Single-step resistance frequency (mutation frequency),A. baumannii [15],1.80 × 10^–8
same,Single-step resistance frequency (mutation frequency),K. pneumoniae [16],1.90 × 10^–8
same,Single-step resistance frequency (mutation frequency),C. albicans100 [17],2.10 × 10^–8
same,Single-step resistance frequency (mutation frequency),C. albicans200 [18],4.40 × 10^–7
same,combination effect,S. aureus [19],S (S: synergism)
same,fractional inhibitory concentration index (FICI),S. aureus [19],0.5
same,combination effect,S. epidermidis [20],S (S: synergism)
same,fractional inhibitory concentration index (FICI),S. epidermidis [20],0.5
same,combination effect,B. subtilis [21],S (S: synergism)
same,fractional inhibitory concentration index (FICI),B. subtilis [21],0.25
same,combination effect,E. coli [22],S (S: synergism)
same,fractional inhibitory concentration index (FICI),E. coli [22],0.5
same,combination effect,A. baumannii [23],S (S: synergism)
same,fractional inhibitory concentration index (FICI),A. baumannii [23],0.5
same,combination effect,K. pneumoniae [24],S (S: synergism)
same,fractional inhibitory concentration index (FICI),K. pneumoniae [24],0.25
same,combination effect,C. albicans100 [25],S (S: synergism)
same,fractional inhibitory concentration index (FICI),C. albicans100 [25],0.25
same,combination effect,C. albicans200 [26],S (S: synergism)
same,fractional inhibitory concentration index (FICI),C. albicans200 [26],0.5
same,%lysis of RBCs,RBCs,9.67% and 9.67 ± 0.31%
same,IC50,E. coli DNA gyrase,22.1 ± 0.3 µM
same,IC50,[27],1.11 ± 0.15 µM
same,IC50 at 72 h,[28],103 ± 1.44 µM
same,Selectivity index against DHFR,[29]; IC50 of BNL / IC50 of DHFR,93.23
same,Selectivity index against DNA gyrase,[29]; IC50 of BNL / IC50 of DNA gyrase,4.67
same,IC50 at 72 h,[30],80.2 ± 1.79 µM
same,Selectivity index against DHFR,[31]; IC50 of Vero / IC50 of DHFR,72.28
same,Selectivity index against DNA gyrase,[31]; IC50 of Vero / IC50 of DNA gyrase,3.62
same,IC50 at 72 h,[32],99.2 ± 2.29 µM
same,Selectivity index against DHFR,[33]; IC50 of H9C2 / IC50 of DHFR,89.37
same,Selectivity index against DNA gyrase,[33]; IC50 of H9C2 / IC50 of DNA gyrase,4.48
same,"mutation frequency, range over panel",[34],2.21 × 10^–7 to 2.71 × 10^–8
